Series [1] in a line: Singlet oxygen quantum yield determination with DPBF. The class given is physicochemical. Particulars: DCM, irradiation 615/30 nm, relative to methylene blue. The text has this: To determine whether a minimal one atom sulfur-for-oxygen substitution within fluorophores can lead to fluorescence quenching, thio-caged Nile Red (SNile Red, FIG. 1) was synthesized, in which a carbonyl group was replaced with a thiocarbonyl moiety. Treatment of Nile Red with Lawesson's reagent in refluxing benzene produced the desired SNile Red in a yield of 40%. […] Irradiation of SNile Red with red light (615 nm, 0.4 μW cm-2) led to the regeneration of fluorescent Nile Red in a high yield (FIG. 2A). […] The A556/A652 value, representing the ratio of the absorbance maxima of Nile Red and SNile Red, increased from 0.25 to 30 after desulfuration reaction (FIG. 2B). Upon irradiation with red light, the fluorescence intensity of the desulfurated material at 626 nm increased 280-fold, accompanied by a change in fluorescence from dark to red (FIG. 2C). To evaluate the proper light source for SNile Red photoactivation, SNile Red was irradiated with either 470 nm, 615 nm, or 850 nm light for different times and fluorescence intensities at 626 nm were recorded. […] To further characterize the photoactivated product of SNile Red, ^1H NMR and ESI-MS spectral changes were measured in the process of photoactivation (FIG. 2A). […]
Singlet oxygen quantum yields were calculated according to the literature (Bonacin et al., 2009, Adarsh et al., 2010, and Li et al., 2013). […]

Series [2] has as its system adipocytes differentiated from 3T3-L1 cells. Description: Co-localization assay by confocal laser scanning microscopy. It counts as cell-based. Particulars: 2 μM, 10 mins, after 488-nm laser for 30 s. Here is the method: Before testing the utility of thio-caged fluorophores for investigating biological systems, the cytotoxicity of SNile Red in adipocytes was evaluated using Cell Counting Kit-8. At a concentration of 4 μM SNile Red, 90% of 3T3-L1 cells remained viable even after 24 hours (FIG. 10). Thio-caged dyes were then used to obtain subcellular structural data via fluorescence imaging of adipocytes. Nile Red and BODIPY are the fluorescent dyes most commonly used for lipid imaging (Corsaro and Pistara, 1998, Spiller et al., 1998, Tang et al., 2013). Confocal laser scanning microscopy (CLSM) was used to determine the specificity of SNile Red localization in adipocytes differentiated from 3T3-L1 cells. For colocalization studies, adipocytes were stained with 2 μM SNile Red and 100 nM BODIPY 493/503 for 10 mins.
3T3-L1 cells were differentiated to adipocytes according to the protocol from ATCC (Chemically-induced differentiation of at CC® CL-173TM (3T3-L1) using single-Component Commercially-available reagents). […]
After incubation of 2 μM SNile Red for 10 min, cells were washed with PBS (pH 7.4) twice and turned to confocal laser scanning microscope (CLSM). […] Differential interference contrast (DIC) and fluorescent images were processed and analyzed using ImageJ. The Pearson's Coefficient was calculated by ImageJ.

With `CCN(CC)c1ccc2nc3c4ccccc4c(=S)cc-3oc2c1` [SNile Red], the “singlet oxygen quantum yield” value in series [1] came out at 0.36. Moreover, the “colocalization with BODIPY 493/503 labeling” value in series [2] is given as “more than 90%”.

These data come from US11913884B2, “Visible light-activated dyes and methods of use thereof” (William Marsh Rice University, priority 2019, dated 2024).
